Article PMC5218480 (PLoS ONE, 2017)

Tested on: MV-4-11 cells
Assay: Gene expression microarray analysis (Affymetrix PrimeView) and GSEA
Type: cell-based, human
Set-up: RFU PODN (11730768_x_at) / Fold change /veh PODN (11730768_x_at) / RFU LINC00158 (11744669_a_at) / Fold change /veh LINC00158 (11744669_a_at) / RFU DUSP10 (11751237_a_at) / Fold change /veh DUSP10 (11751237_a_at) / RFU ID3 (11757404_x_at) / Fold change /veh ID3 (11757404_x_at) / RFU PLEKHG5 (11737974_s_at) / Fold change /veh PLEKHG5 (11737974_s_at) / RFU LRRC4B (11730491_at) / Fold change /veh LRRC4B (11730491_at) / RFU GIMAP4 (11747438_a_at) / Fold change /veh GIMAP4 (11747438_a_at) / RFU KRT8 (11758183_x_at) / Fold change /veh KRT8 (11758183_x_at) / RFU CNN1 (11734310_a_at) / Fold change /veh CNN1 (11734310_a_at) / RFU VPS37D (11726825_at) / Fold change /veh VPS37D (11726825_at) / RFU C10orf10 (11716522_x_at) / Fold change /veh C10orf10 (11716522_x_at) / RFU KIR2DL2 /// KIR2DL4 /// KIR2DL5A /// KIR2DL5B /// KIR2DS1 /// KIR2DS2 /// KIR2DS3 /// KIR2DS4 /// KIR3DL3 /// KIR3DL3 /// KIR3DS1 (11738374_at) / Fold change /veh KIR2DL2 /// KIR2DL4 /// KIR2DL5A /// KIR2DL5B /// KIR2DS1 /// KIR2DS2 /// KIR2DS3 /// KIR2DS4 /// KIR3DL3 /// KIR3DL3 /// KIR3DS1 (11738374_at) / RFU C1QL1 (11718748_at) / Fold change /veh C1QL1 (11718748_at) / RFU TMPRSS4 (11747572_a_at) / Fold change /veh TMPRSS4 (11747572_a_at) / RFU HAMP (11756126_x_at) / Fold change /veh HAMP (11756126_x_at) / RFU RNFT2 (11725882_a_at) / Fold change /veh RNFT2 (11725882_a_at) / RFU NR4A2 (11747474_a_at) / Fold change /veh NR4A2 (11747474_a_at) / RFU ABCC12 (11746883_a_at) / Fold change /veh ABCC12 (11746883_a_at) / RFU TMEM136 (11760407_x_at) / Fold change /veh TMEM136 (11760407_x_at) / RFU CLDN22 /// WWC2 (11732394_at) / Fold change /veh CLDN22 /// WWC2 (11732394_at) / RFU HLA-DPB1 (11760878_x_at) / Fold change /veh HLA-DPB1 (11760878_x_at) / RFU SPINT1 (11716480_a_at) / Fold change /veh SPINT1 (11716480_a_at) / RFU GAP43 (11754022_s_at) / Fold change /veh GAP43 (11754022_s_at) / RFU A4GNT (11735810_at) / Fold change /veh A4GNT (11735810_at) / RFU PRB3 (11715151_x_at) / Fold change /veh PRB3 (11715151_x_at) / RFU TUBB4B (11761932_at) / Fold change /veh TUBB4B (11761932_at) / RFU CAPN14 (11732068_a_at) / Fold change /veh CAPN14 (11732068_a_at) / RFU TMCC2 (11721928_a_at) / Fold change /veh TMCC2 (11721928_a_at) / RFU IRGQ (11745062_a_at) / Fold change /veh IRGQ (11745062_a_at) / RFU FAM174B (11720279_a_at) / Fold change /veh FAM174B (11720279_a_at) / RFU TMPRSS4 (11748680_a_at) / Fold change /veh TMPRSS4 (11748680_a_at) / RFU FAM212B (11763350_a_at) / Fold change /veh FAM212B (11763350_a_at) / RFU PLEKHG5 (11743358_a_at) / Fold change /veh PLEKHG5 (11743358_a_at) / RFU ZSCAN30 (11745921_a_at) / Fold change /veh ZSCAN30 (11745921_a_at) / RFU CMKLR1 (11741424_a_at) / Fold change /veh CMKLR1 (11741424_a_at) / RFU LOC101060620 /// MAPK8IP1 (11723275_at) / Fold change /veh LOC101060620 /// MAPK8IP1 (11723275_at) / RFU SPTSSB (11747773_x_at) / Fold change /veh SPTSSB (11747773_x_at) / RFU PRSS12 (11739890_at) / Fold change /veh PRSS12 (11739890_at) / RFU BIN1 (11741810_x_at) / Fold change /veh BIN1 (11741810_x_at) / RFU WNT11 (11732464_a_at) / Fold change /veh WNT11 (11732464_a_at) / RFU C10orf10 (11716521_a_at) / Fold change /veh C10orf10 (11716521_a_at) / RFU C5orf56 (11738089_at) / Fold change /veh C5orf56 (11738089_at) / RFU CYB561 (11721691_x_at) / Fold change /veh CYB561 (11721691_x_at) / RFU ANKRD19P (11752326_a_at) / Fold change /veh ANKRD19P (11752326_a_at) / RFU OR2T12 /// OR2T33 /// OR2T8 (11738714_s_at) / Fold change /veh OR2T12 /// OR2T33 /// OR2T8 (11738714_s_at) / RFU VCAN (11748164_a_at) / Fold change /veh VCAN (11748164_a_at) / RFU JSRP1 (11732532_at) / Fold change /veh JSRP1 (11732532_at) / RFU KRTAP10-11 (11738290_x_at) / Fold change /veh KRTAP10-11 (11738290_x_at) / RFU MYO3A (11730013_a_at) / Fold change /veh MYO3A (11730013_a_at) / RFU EBF3 (11725865_a_at) / Fold change /veh EBF3 (11725865_a_at) / RFU CAMK2N1 (11719241_x_at) / Fold change /veh CAMK2N1 (11719241_x_at) / RFU C5orf56 (11738088_a_at) / Fold change /veh C5orf56 (11738088_a_at) / RFU OLFML3 (11715873_a_at) / Fold change /veh OLFML3 (11715873_a_at) / RFU LOC100653217 /// NTM (11731650_a_at) / Fold change /veh LOC100653217 /// NTM (11731650_a_at) / RFU MAPK11 (11762145_a_at) / Fold change /veh MAPK11 (11762145_a_at) / RFU FIZ1 (11724087_x_at) / Fold change /veh FIZ1 (11724087_x_at) / RFU OASL (11726364_x_at) / Fold change /veh OASL (11726364_x_at) / RFU SOX15 (11748057_x_at) / Fold change /veh SOX15 (11748057_x_at) / RFU CD79A (11719716_a_at) / Fold change /veh CD79A (11719716_a_at) / RFU HIST1H1D (11736915_at) / Fold change /veh HIST1H1D (11736915_at) / RFU CASKIN2 (11723855_a_at) / Fold change /veh CASKIN2 (11723855_a_at) / RFU LOC730098 (11760151_x_at) / Fold change /veh LOC730098 (11760151_x_at) / RFU OR4N2 (11742367_at) / Fold change /veh OR4N2 (11742367_at) / RFU PRRT2 (11749266_a_at) / Fold change /veh PRRT2 (11749266_a_at) / RFU SNX32 (11753110_a_at) / Fold change /veh SNX32 (11753110_a_at) / RFU CDHR5 (11726645_a_at) / Fold change /veh CDHR5 (11726645_a_at) / RFU RCAN1 (11760418_a_at) / Fold change /veh RCAN1 (11760418_a_at) / RFU FAM167A (11723789_a_at) / Fold change /veh FAM167A (11723789_a_at) / RFU FAM26E (11764081_at) / Fold change /veh FAM26E (11764081_at) / RFU ISYNA1 (11749810_s_at) / Fold change /veh ISYNA1 (11749810_s_at) / RFU ACY1 (11761880_at) / Fold change /veh ACY1 (11761880_at) / RFU 11764098_at / Fold change /veh 11764098_at / RFU SAMD14 (11745864_x_at) / Fold change /veh SAMD14 (11745864_x_at) / RFU NPB (11741838_a_at) / Fold change /veh NPB (11741838_a_at) / RFU TMPRSS6 (11731388_a_at) / Fold change /veh TMPRSS6 (11731388_a_at) / RFU KRTAP10-2 (11738614_at) / Fold change /veh KRTAP10-2 (11738614_at) / RFU ARHGAP8 /// PRR5-ARHGAP8 (11727945_x_at) / Fold change /veh ARHGAP8 /// PRR5-ARHGAP8 (11727945_x_at) / RFU KRTAP5-7 /// NADSYN1 (11734609_at) / Fold change /veh KRTAP5-7 /// NADSYN1 (11734609_at) / RFU RASL12 (11751679_a_at) / Fold change /veh RASL12 (11751679_a_at) / RFU CDKN2B (11736163_a_at) / Fold change /veh CDKN2B (11736163_a_at) / RFU PRF1 (11729649_at) / Fold change /veh PRF1 (11729649_at) / RFU, ZNF638 /// ZNF638-IT1 / Fold change vs veh, ZNF638 /// ZNF638-IT1 / RFU, PANK3 / Fold change vs veh, PANK3 / RFU, SH3YL1 / Fold change vs veh, SH3YL1 / RFU, ZEB2 / Fold change vs veh, ZEB2 / RFU, NRIP1 / Fold change vs veh, NRIP1 / RFU, PTTG1IP / Fold change vs veh, PTTG1IP / RFU, CAPN2 / Fold change vs veh, CAPN2 / RFU, MED14 / Fold change vs veh, MED14 / RFU, SNORA58 / Fold change vs veh, SNORA58 / RFU, C1orf63 / Fold change vs veh, C1orf63 / RFU, LRRFIP1 / Fold change vs veh, LRRFIP1 / RFU, NDUFAF7 / Fold change vs veh, NDUFAF7 / RFU, SLC12A2 / Fold change vs veh, SLC12A2 / RFU, IBTK / Fold change vs veh, IBTK / RFU, ESF1 / Fold change vs veh, ESF1 / Fold change vs veh, TMEM50B / RFU, TAOK1 / Fold change vs veh, TAOK1 / RFU, ACBD3 / Fold change vs veh, ACBD3 / RFU, TMA16 / Fold change vs veh, TMA16 / RFU, RWDD3 / Fold change vs veh, RWDD3 / RFU, BCAT1 / Fold change vs veh, BCAT1 / RFU, EDEM3 / Fold change vs veh, EDEM3 / RFU, TMEM33 / Fold change vs veh, TMEM33 / RFU, WDR75 / Fold change vs veh, WDR75 / RFU, AHCTF1 / Fold change vs veh, AHCTF1 / RFU, TFRC / Fold change vs veh, TFRC / RFU, ZDHHC17 / Fold change vs veh, ZDHHC17 / RFU, NOM1 / Fold change vs veh, NOM1 / RFU, ARL8B / Fold change vs veh, ARL8B / RFU, ZBTB11 / Fold change vs veh, ZBTB11 / RFU, TAMM41 / Fold change vs veh, TAMM41 / RFU, KIAA1704 /// LOC100996395 / Fold change vs veh, KIAA1704 /// LOC100996395 / RFU, ING1 / Fold change vs veh, ING1 / RFU, TRMT61B / Fold change vs veh, TRMT61B / RFU, FUBP3 / Fold change vs veh, FUBP3 / RFU, TP53 / Fold change vs veh, TP53 / RFU, TNKS2 / Fold change vs veh, TNKS2 / RFU, ZFP14 / Fold change vs veh, ZFP14 / RFU, ACTR2 / Fold change vs veh, ACTR2 / RFU, PPP3R1 / Fold change vs veh, PPP3R1 / RFU, PIK3R1 / Fold change vs veh, PIK3R1 / RFU, HNRNPA1 / Fold change vs veh, HNRNPA1 / RFU, RNF170 / Fold change vs veh, RNF170 / RFU, ZNF28 / Fold change vs veh, ZNF28 / RFU, RNGTT / Fold change vs veh, RNGTT / RFU, OGT / Fold change vs veh, OGT / RFU, BRD1 / Fold change vs veh, BRD1 / RFU, MARS / Fold change vs veh, MARS / RFU, ZNF655 / Fold change vs veh, ZNF655 / RFU, FAHD1 / Fold change vs veh, FAHD1 / RFU, BDP1 / Fold change vs veh, BDP1 / RFU, LRRCC1 / Fold change vs veh, LRRCC1 / RFU, ARID1A / Fold change vs veh, ARID1A / RFU, ZNF146 / Fold change vs veh, ZNF146 / RFU, ZNF330 / Fold change vs veh, ZNF330 / RFU, GPN3 / Fold change vs veh, GPN3 / RFU, C9orf123 / Fold change vs veh, C9orf123 / RFU, N4BP2L2 / Fold change vs veh, N4BP2L2 / RFU, ARFIP1 / Fold change vs veh, ARFIP1 / RFU, FAM179B / Fold change vs veh, FAM179B / RFU, BCL10 / Fold change vs veh, BCL10 / RFU, UHRF1BP1L / Fold change vs veh, UHRF1BP1L / RFU, BET1 / Fold change vs veh, BET1 / RFU, CNOT2 / Fold change vs veh, CNOT2 / RFU, ZNF268 / Fold change vs veh, ZNF268 / Fold change vs veh, ZNF507 / RFU, DGCR2 / Fold change vs veh, DGCR2 / RFU, WDSUB1 / Fold change vs veh, WDSUB1 / Fold change vs veh, HSP90B1 /// MIR3652 / RFU, ADSS / Fold change vs veh, ADSS / RFU, GK / Fold change vs veh, GK / RFU, ZNF148 / Fold change vs veh, ZNF148 / RFU, TAF9 / Fold change vs veh, TAF9 / RFU, SLC1A5 / Fold change vs veh, SLC1A5 / RFU, SLMO2 / Fold change vs veh, SLMO2 / RFU, ABCC4 / Fold change vs veh, ABCC4 / RFU, LOC101060439 /// RAP1B / Fold change vs veh, LOC101060439 /// RAP1B / RFU, RFX7 / Fold change vs veh, RFX7 / RFU, GTPBP10 / Fold change vs veh, GTPBP10 / RFU, CNEP1R1 / Fold change vs veh, CNEP1R1 / RFU, BIVM-ERCC5 /// ERCC5 / Fold change vs veh, BIVM-ERCC5 /// ERCC5 / RFU, ILF3 / Fold change vs veh, ILF3 / RFU 11762660_at / Fold change /veh 11762660_at / RFU VCAN (11757783_s_at) / Fold change /veh VCAN (11757783_s_at) / RFU DDX43 (11728927_at) / Fold change /veh DDX43 (11728927_at) / RFU KRT8 (11758188_x_at) / Fold change /veh KRT8 (11758188_x_at) / RFU NKD1 (11759106_at) / Fold change /veh NKD1 (11759106_at) / RFU SRD5A1 (11742802_a_at) / Fold change /veh SRD5A1 (11742802_a_at) / RFU TPSAB1 /// TPSB2 (11721975_s_at) / Fold change /veh TPSAB1 /// TPSB2 (11721975_s_at) / RFU GSTM3 (11746129_a_at) / Fold change /veh GSTM3 (11746129_a_at) / RFU IL23R (11737362_x_at) / Fold change /veh IL23R (11737362_x_at) / RFU TMEM51 (11727254_a_at) / Fold change /veh TMEM51 (11727254_a_at) / RFU PIWIL2 (11732686_x_at) / Fold change /veh PIWIL2 (11732686_x_at) / RFU ORM1 (11744905_x_at) / Fold change /veh ORM1 (11744905_x_at) / RFU CCDC152 (11743942_at) / Fold change /veh CCDC152 (11743942_at) / RFU ECM1 (11717891_a_at) / Fold change /veh ECM1 (11717891_a_at) / RFU IL23R (11748794_a_at) / Fold change /veh IL23R (11748794_a_at) / RFU TNFAIP8L3 (11732012_x_at) / Fold change /veh TNFAIP8L3 (11732012_x_at) / RFU MBOAT4 (11741988_at) / Fold change /veh MBOAT4 (11741988_at) / RFU 11764193_at / Fold change /veh 11764193_at / RFU TMEM53 (11763286_at) / Fold change /veh TMEM53 (11763286_at) / RFU MAGEB2 (11727129_at) / Fold change /veh MAGEB2 (11727129_at) / RFU TMEM200A (11744735_a_at) / Fold change /veh TMEM200A (11744735_a_at) / RFU CCDC152 (11751479_a_at) / Fold change /veh CCDC152 (11751479_a_at) / RFU FAM211A (11726209_a_at) / Fold change /veh FAM211A (11726209_a_at) / RFU RGS16 (11746705_a_at) / Fold change /veh RGS16 (11746705_a_at) / RFU VCAN (11755009_s_at) / Fold change /veh VCAN (11755009_s_at) / RFU RHOB (11743442_s_at) / Fold change /veh RHOB (11743442_s_at) / RFU RGS16 (11720943_a_at) / Fold change /veh RGS16 (11720943_a_at) / RFU RGS16 (11720944_at) / Fold change /veh RGS16 (11720944_at) / RFU, VPS4B / Fold change vs veh, VPS4B / RFU, CREB1 / Fold change vs veh, CREB1 / RFU, DNAJC13 / Fold change vs veh, DNAJC13 / RFU, GNAQ / Fold change vs veh, GNAQ / RFU, CDK5R1 / Fold change vs veh, CDK5R1 / RFU, ZRANB3 / Fold change vs veh, ZRANB3 / RFU, CUL4A / Fold change vs veh, CUL4A / RFU, CCNY / Fold change vs veh, CCNY / RFU, UFL1 / Fold change vs veh, UFL1 / RFU, COG3 / Fold change vs veh, COG3 / RFU, DIAPH2 / Fold change vs veh, DIAPH2 / RFU, SKA2 / Fold change vs veh, SKA2 / RFU, AFF3 / Fold change vs veh, AFF3 / RFU, LMF1 / Fold change vs veh, LMF1 / RFU, IPO11 / Fold change vs veh, IPO11 / RFU, DFFB / Fold change vs veh, DFFB / RFU, FOXP1 / Fold change vs veh, FOXP1 / RFU, CARD8 / Fold change vs veh, CARD8 / RFU, STRN3 / Fold change vs veh, STRN3 / RFU, ADK / Fold change vs veh, ADK / RFU, RASSF2 / Fold change vs veh, RASSF2 / RFU, WIPF1 / Fold change vs veh, WIPF1 / RFU, LARP1B / Fold change vs veh, LARP1B / RFU, RASA1 / Fold change vs veh, RASA1 / RFU, RB1 / Fold change vs veh, RB1 / RFU, PPFIA1 / Fold change vs veh, PPFIA1 / RFU, MAT2A / Fold change vs veh, MAT2A / RFU, CCT5 / Fold change vs veh, CCT5 / RFU, WDR92 / Fold change vs veh, WDR92 / RFU, CUX1 / Fold change vs veh, CUX1 / RFU, TTC7A / Fold change vs veh, TTC7A / RFU, TMEM135 / Fold change vs veh, TMEM135 / RFU, DEPTOR / Fold change vs veh, DEPTOR / RFU, CPM / Fold change vs veh, CPM / RFU, DNAJB6 / Fold change vs veh, DNAJB6 / RFU, CACNA2D3 / Fold change vs veh, CACNA2D3 / RFU, DTX4 / Fold change vs veh, DTX4 / RFU, TFCP2 / Fold change vs veh, TFCP2 / RFU, GMCL1 /// GMCL1P1 / Fold change vs veh, GMCL1 /// GMCL1P1 / RFU, AEBP2 / Fold change vs veh, AEBP2 / RFU, SNHG1 /// SNORD22 /// SNORD25 /// SNORD26 /// SNORD27 /// SNORD28 /// SNORD29 /// SNORD31 / Fold change vs veh, SNHG1 /// SNORD22 /// SNORD25 /// SNORD26 /// SNORD27 /// SNORD28 /// SNORD29 /// SNORD31 / Fold change (Aza/veh), C12orf56 (ProbeSet 11735607_a_at) / Fold change (ACY-1035/veh), C12orf56 (ProbeSet 11735607_a_at) / Fold change (Aza/veh), FGFR1OP (ProbeSet 11751329_s_at) / Fold change (ACY-1035/veh), FGFR1OP (ProbeSet 11751329_s_at) / Fold change (Aza/veh), VPS36 (ProbeSet 11739960_a_at) / Fold change (ACY-1035/veh), VPS36 (ProbeSet 11739960_a_at) / RFU SYPL1 (11715823_x_at) / Fold change /veh SYPL1 (11715823_x_at) / RFU IGFBP7 (11715501_s_at) / Fold change /veh IGFBP7 (11715501_s_at) / RFU REEP3 (11722064_at) / Fold change /veh REEP3 (11722064_at) / RFU IGLL1 (11728026_x_at) / Fold change /veh IGLL1 (11728026_x_at): dose or concentration left out as unconfirmed
Conditions: MV-4-11 cells, 48 hours

Nc1ccc(-c2cccs2)cc1NC(=O)c1ccc2c(c1)cc(C1CC1)n2CCN1CCOCC1 [ACY-1035]
RFU VCAN (11748164_a_at): 5.33 RFU
